This note sets out measurements from patent US8088936B2, “Leukotriene B4 inhibitors” (Hoffman-La Roche Inc., priority 2009, dated 2012).

The subject of this test is Human leukemia HL-60 cells endogenously expressing BLT1 and BLT2 receptors. The test is described as follows: Ca2+ flux assay for LTB4 antagonist assay (HL-60 FLIPR). In kind it is cell-based. The following applies: retinoic acid induced HL-60 cells, inhibition of LTB4-induced Ca2+ flux, 30 min preincubation; read-out: LTB4 antagonism (HL-60 FLIPR). On the procedure: Assay of Compounds for Inhibition of LTB4 Activity
Ca^2+Flux Assay for LTB4 Antagonist Assay
Human leukemia HL-60 cells endogenously expressing BLT1 and BLT2 receptors were cultured in RPMI-1640 medium supplemented with 20% fetal bovine serum, 2 mM glutamine, 100 U/ml penicillin and 100 ug/ml streptomycin.
Seventy two hours prior to experiment cells are counted using ViaCount reagent, centrifuged and resuspended at 2.0×10^5 cells/ml density with the complete growth media containing 1 μM Retinoic Acid (Sigma).
On a day of the experiment loading buffer (Calcium-3 Assay Kit, Molecular Devices) was prepared by dissolving the contents of one vial (Express Kit) into 500 ml Hank's Balanced Salt Solution containing 20 mM HEPES and 5 mM probenecid. Equal volume of the loading buffer was mixed with the replacement buffer (Hank's Balanced Salt Solution containing 20 mM HEPES, 0.05% BSA and 5 mM probenecid). Retinoic Acid induced HL-60 cells were counted using ViaCount reagent, centrifuged and resuspended at 2.0×10^6 cells/ml density with the loading buffer/replacement buffer, dispensed into 384 well black/clear microplates (Falcon) (25 μl/well) and placed in a 37° C./5% CO2 incubator for 1 hour.
During the incubation, test compounds were prepared at 6× the desired concentration in HBSS/20 mM HEPES/0.05% BSA as well as LTB4 (Biomol) was prepared at 2.2× concentration in HBSS/20 mM HEPES/0.5% BSA buffer.
After the incubation, both the cell and compound plates were brought to the FLIPR and 5 μl of the diluted compounds were transferred to the cell plates by the FLIPR. Plates were then incubated for 30 min at room temperature. After the ½ hour incubation, plates were returned to the FLIPR and 25 μl of 2.2×LTB4 was added to the cell plates. During the assay, fluorescence readings were taken simultaneously from all 384 wells of the cell plate every 1.5 seconds. Five readings were taken to establish a stable baseline, then 25 μl (LTB4) of sample was rapidly and simultaneously added to each well of the cell plate. The fluorescence was continuously monitored before, during and after sample addition for a total elapsed time of 100 seconds. Responses (increase in peak fluorescence) in each well following agonist addition was determined. The initial fluorescence reading from each well, prior to ligand stimulation, was used a zero baseline value for the data from that well. The responses are expressed as % inhibition of the neutral control (neural control: wells that received buffer plus DMSO but no test compound).
(In general: Calcium assays in cells follow changes in intracellular calcium, usually with a dye or a luminescent sensor.)

As for `COCc1cc(OCCCCCCc2cccc(OCCCC(=O)O)c2CCC(=O)O)cc(-c2ccc(S(C)(=O)=O)cc2)c1` [Example 24, 4-[2-(2-Carboxy-ethyl)-3-[6-(4′-methanesulfonyl-5-methoxymethyl-biphenyl-3-yloxy)-hexyl]-phenoxy]-butyric acid], the IC50 is 6.83 nM.
In the case of `CCOCc1cc(OCCCCCCc2cccc(OCCCC(=O)O)c2CCC(=O)O)cc(-c2ccc3c(c2)OCO3)c1` [Example 25, 4-[3-[6-(3-Benzo[1,3]dioxol-5-yl-5-ethoxymethyl-phenoxy)-hexyl]-2-(2-carboxy-ethyl)-phenoxy]-butyric acid] it was 1.06 nM; in that of `CCOCc1cc(OCCCCCCc2cccc(OCCCC(=O)O)c2CCC(=O)O)cc(-c2ccc(F)cc2)c1` [Example 26, 4-{2-(2-Carboxy-ethyl)-3-[6-(5-ethoxymethyl-4′-fluoro-biphenyl-3-yloxy)-hexyl]-phenoxy}-butyric acid], 11.9 nM; in that of `CCOCc1cc(OCCCCCCc2cccc(OCCCC(=O)O)c2CCC(=O)O)cc(-c2ccc(C(F)(F)F)cc2)c1` [Example 27, 4-{2-(2-Carboxy-ethyl)-3-[6-(5-ethoxymethyl-4′-trifluoromethyl-biphenyl-3-yloxy)-hexyl]-phenoxy}-butyric acid], 6.24 nM.
As for `CCOCc1cc(OCCCCCCc2cccc(OCCCC(=O)O)c2CCC(=O)O)cc(-c2ccc(Cl)cc2)c1` [Example 28, 4-{2-(2-Carboxy-ethyl)-3-[6-(5-ethoxymethyl-4′-chloro-biphenyl-3-yloxy)-hexyl]-phenoxy}-butyric acid], the IC50 was determined as 6.51 nM.
Under `CCOCc1cc(OCCCCCCc2cccc(OCCCC(=O)O)c2CCC(=O)O)cc(-c2ccc(S(C)(=O)=O)cc2)c1` [Example 29, 4-[2-(2-Carboxy-ethyl)-3-[6-(5-ethoxymethyl-4′-methanesulfonyl-biphenyl-3-yloxy)-hexyl]-phenoxy]-butyric acid] stands 16 nM; under `CN(C)Cc1cc(OCCCCCCc2cccc(OCCCC(=O)O)c2CCC(=O)O)cc(-c2ccc3c(c2)OCO3)c1` [Example 30, 4-[3-[6-(3-Benzo[1,3]dioxol-5-yl-5-dimethylaminomethyl-phenoxy)-hexyl]-2-(2-carboxy-ethyl)-phenoxy]-butyric acid], 0.1 nM; under `CN(C)Cc1cc(OCCCCCCc2cccc(OCCCC(=O)O)c2CCC(=O)O)cc(-c2ccsc2)c1` [Example 31, 4-{2-(2-Carboxy-ethyl)-3-[6-(3-dimethylaminomethyl-5-thiophen-3-yl-phenoxy)-hexyl]-phenoxy}-butyric acid], 0.11 nM.
In the case of `CN(C)Cc1cc(OCCCCCCc2cccc(OCCCC(=O)O)c2CCC(=O)O)cc(-c2ccccc2)c1` [Example 32, 4-{2-(2-Carboxy-ethyl)-3-[6-(5-dimethylaminomethyl-biphenyl-3-yloxy)-hexyl]-phenoxy}-butyric acid] it was 0.1 nM; in that of `CN(C)Cc1cc(OCCCCCCc2cccc(OCCCC(=O)O)c2CCC(=O)O)cc(-c2ccc(F)cc2)c1` [Example 33, 4-{2-(2-Carboxy-ethyl)-3-[6-(5-dimethylaminomethyl-4′-fluoro-biphenyl-3-yloxy)-hexyl]-phenoxy}-butyric acid], 0.11 nM.
In the case of `CN(C)Cc1cc(OCCCCCCc2cccc(OCCCC(=O)O)c2CCC(=O)O)cc(-c2ccc(Cl)cc2)c1` [Example 34, 4-{2-(2-Carboxy-ethyl)-3-[6-(4′-chloro-5-dimethylaminomethyl-biphenyl-3-yloxy)-hexyl]-phenoxy}-butyric acid] it was 0.24 nM; in that of `Cc1ccc(-c2cc(CN(C)C)cc(OCCCCCCc3cccc(OCCCC(=O)O)c3CCC(=O)O)c2)cc1F` [Example 35, 4-{2-(2-Carboxy-ethyl)-3-[6-(5-dimethylaminomethyl-3′-fluoro-4′-methyl-biphenyl-3-yloxy)-hexyl]-phenoxy}-butyric acid], 0.16 nM; in that of `CN(C)Cc1cc(OCCCCCCc2cccc(OCCCC(=O)O)c2CCC(=O)O)cc(-c2cccc(F)c2)c1` [Example 36, 4-{2-(2-Carboxy-ethyl)-3-[6-(5-dimethylaminomethyl-3′-fluoro-biphenyl-3-yloxy)-hexyl]-phenoxy}-butyric acid], 0.14 nM.
As for `CN(C)Cc1cc(OCCCCCCc2cccc(OCCCC(=O)O)c2CCC(=O)O)cc(-c2ccc(C(F)(F)F)cc2)c1` [Example 37, 4-{2-(2-Carboxy-ethyl)-3-[6-(5-dimethylaminomethyl-4′-trifluoromethyl-biphenyl-3-yloxy)-hexyl]phenoxy}-butyric acid], the IC50 worked out at 0.37 nM.
Under `CN(C)Cc1cc(OCCCCCCc2cccc(OCCCC(=O)O)c2CCC(=O)O)cc(-c2ccc(S(C)(=O)=O)cc2)c1` [Example 38, 4-{2-(2-Carboxy-ethyl)-3-[6-(5-dimethylaminomethyl-4′-methanesulfonyl-biphenyl-3-yloxy)-hexyl]-phenoxy}-butyric acid] stands 2.22 nM; under `CN(C)Cc1cc(OCCCCCCc2cccc(OCCCC(=O)O)c2CCC(=O)O)cc(-c2cccc(S(C)(=O)=O)c2)c1` [Example 39, 4-{2-(2-Carboxy-ethyl)-3-[6-(5-dimethylaminomethyl-3′-methanesulfonyl-biphenyl-3-yloxy)-hexyl]-phenoxy}-butyric acid], 70.8 nM.
In the case of `CN(C)Cc1cc(OCCCCCCc2cccc(OCCCC(=O)O)c2CCC(=O)O)cc(-c2ccncc2)c1` [Example 40, 4-{2-(2-Carboxy-ethyl)-3-[6-(3-dimethylaminomethyl-5-pyridin-4-yl-phenoxy)-hexyl]-phenoxy}-butyric acid] it was 0.42 nM; in that of `N#CCc1cc(OCCCCCCc2cccc(OCCCC(=O)O)c2CCC(=O)O)cc(-c2ccsc2)c1` [Example 41, 4-{2-(2-Carboxy-ethyl)-3-[6-(3-cyanomethyl-5-thiophen-3-yl-phenoxy)-hexyl]-phenoxy}-butyric acid], 15.2 nM.
Regarding `N#CCc1cc(OCCCCCCc2cccc(OCCCC(=O)O)c2CCC(=O)O)cc(-c2ccccc2)c1` [Example 42, 4-{2-(2-Carboxy-ethyl)-3-[6-(5-cyanomethyl-biphenyl-3-yloxy)-hexyl]-phenoxy}-butyric acid], the IC50 amounted to 23 nM.
Under `CCOc1cc(OCCCCCCc2cccc(OCCCC(=O)O)c2CCC(=O)O)cc(-c2ccc3c(c2)OCO3)c1` [Example 43, 4-[3-[6-(3-Benzo[1,3]dioxol-5-yl-5-ethoxy-phenoxy)-hexyl]-2-(2-carboxy-ethyl)-phenoxy]-butyric acid] stands 0.22 nM.
In the case of `CCOc1cc(OCCCCCCc2cccc(OCCCC(=O)O)c2CCC(=O)O)cc(-c2ccccc2)c1` [Example 44, 4-[2-(2-Carboxy-ethyl)-3-[6-(5-ethoxy-biphenyl-3-yloxy)-hexyl]-phenoxy]-butyric acid] it was 1.26 nM.
Under `CCOc1cc(OCCCCCCc2cccc(OCCCC(=O)O)c2CCC(=O)O)cc(-c2ccsc2)c1` [Example 45, 4-[2-(2-Carboxy-ethyl)-3-[6-(3-ethoxy-5-thiophen-3-yl-phenoxy)-hexyl]-phenoxy]-butyric acid] stands 0.4 nM; under `CCOc1cc(OCCCCCCc2cccc(OCCCC(=O)O)c2CCC(=O)O)cc(-c2ccc3c(c2)OCCO3)c1` [Example 46, 4-[2-(2-Carboxy-ethyl)-3-{6-[3-(2,3-dihydro-benzo[1,4]dioxin-6-yl)-5-ethoxy-phenoxy]-hexyl}-phenoxy]-butyric acid], 1.11 nM.
